According to patent US7781590B2, “Piperidinylalkylcarbamate derivatives, methods for their preparation and the therapeutic use thereof as fatty acid amido hydrolase enzyme inhibitors” (Sanofi-Aventis, priority 2004, dated 2010):
Counter-ions that a name gives are not always drawn.

CNC(=O)COC(=O)NCCC1CCN(Cc2ccccn2)CC1 [Compound 31, 2-(methylamino)-2-oxoethyl 2-[1-(pyridin-2-ylmethyl)piperidin-4-yl]ethylcarbamate]
melting point: 104 to 106 °C

CNC(=O)COC(=O)NCCC1CCN(Cc2cccc(OC(C)(C)C)c2)CC1 [Compound 122, 2-(methylamino)-2-oxoethyl 2-[1-(3-tert-butoxybenzyl)piperidin-4-yl]ethylcarbamate]
melting point: 66 to 70 °C

CNC(=O)COC(=O)NCCC1CCN(Cc2ccc(F)c(Cl)c2)CC1 [Compound 101, 2-(methylamino)-2-oxoethyl 2-[1-(3-chloro-4-fluorobenzyl)piperidin-4-yl]ethylcarbamate]
melting point: 112 to 114 °C

CNC(=O)COC(=O)NCCC1CCN(Cc2ncc(-c3ccc(Cl)cc3)o2)CC1 [Compound 105, 2-(methylamino)-2-oxoethyl 2-(1-{[5-(4-chlorophenyl)-1,3-oxazol-2-yl]methyl}piperidin-4-yl)ethylcarbamate]
melting point: 124 to 126 °C

CNC(=O)COC(=O)NCCC1CCN(CCc2c(F)cccc2Cl)CC1 [Compound 60, 2-(methylamino)-2-oxoethyl 2-{1-[2-(2-chloro-6-fluorophenyl)ethyl]piperidin-4-yl}ethylcarbamate]
melting point: 88 to 90 °C

CNC(=O)COC(=O)NCCC1CCN(Cc2nc(-c3ccc(C(F)(F)F)cc3)cs2)CC1 [Compound 106, 2-(methylamino)-2-oxoethyl 2-[1-({4-[4-(trifluoromethyl)phenyl]-1,3-thiazol-2-yl}methyl)piperidin-4-yl]ethylcarbamate]
melting point: 161 to 163 °C

CNC(=O)COC(=O)NCCC1CCN(Cc2cc(C)cc(Cl)c2)CC1 [Compound 24, 2-(methylamino)-2-oxoethyl 2-[1-(3-chloro-5-methylbenzyl)piperidin-4-yl]ethylcarbamate]
melting point: 79 to 81 °C

CNC(=O)COC(=O)NCCC1CCN(Cc2cc(Cl)cc(Cl)c2)CC1 [Compound 21, 2-(methylamino)-2-oxoethyl 2-[1-(3,5-dichlorobenzyl)piperidin-4-yl]ethylcarbamate]
melting point: 124 to 126 °C

CNC(=O)COC(=O)NCCC1CCN(Cc2ccc(Cl)cc2Cl)CC1 [Compound 18, 2-(methylamino)-2-oxoethyl 2-[1-(2,4-dichlorobenzyl)piperidin-4-yl]ethylcarbamate]
melting point: 117 to 119 °C

CNC(=O)COC(=O)NCC1CCN(CCc2ccc(F)cc2OC)CC1 [Compound 52]
melting point: 126 to 128 °C

CNC(=O)COC(=O)NCCC1CCN(CCCc2ccc(OC)cc2)CC1 (as salt: HCl) [Compound 64, 2-(methylamino)-2-oxoethyl 2-(1-{3-[4-(methyloxy)phenyl]propyl}piperidin-4-yl)ethylcarbamate]
melting point: 118 to 120 °C

CNC(=O)COC(=O)NCCC1CCN(Cc2ccc(OC(F)(F)F)cc2)CC1 [Compound 16, 2-(methylamino)-2-oxoethyl 2-{1-[4-(trifluoromethoxy)benzyl]piperidin-4-yl}ethylcarbamate]
melting point: 109 to 111 °C

CNC(=O)COC(=O)NCCC1CCN(Cc2ccc(Oc3ccc(Cl)c(F)c3)cc2)CC1 [Compound 28, 2-(methylamino)-2-oxoethyl 2-{1-[4-(4-chloro-3-fluorophenoxy)benzyl]piperidin-4-yl}ethylcarbamate]
melting point: 109 to 111 °C

CCOc1ccc(CCN2CCC(CCNC(=O)OCC(=O)NC)CC2)cc1 [Compound 59, 2-(methylamino)-2-oxoethyl 2-(1-{2-[4-(ethyloxy)phenyl]ethyl}piperidin-4-yl)ethylcarbamate]
melting point: 118 to 120 °C

CNC(=O)COC(=O)NCCC1CCN(Cc2ccc(-c3ccc(F)cc3)cc2Cl)CC1 [Compound 27, 2-(methylamino)-2-oxoethyl 2-{1-[(3-chloro-4′-fluorobiphenyl-4-yl)methyl]piperidin-4-yl}ethylcarbamate]
melting point: 98 to 102 °C

CNC(=O)COC(=O)NCCC1CCN(Cc2cccc(C(F)(F)F)c2)CC1 [Compound 13, 2-(methylamino)-2-oxoethyl 2-(1-{[3-(trifluoromethyl)phenyl]methyl}piperidin-4-yl)ethylcarbamate]
melting point: 90 to 92 °C

CNC(=O)COC(=O)NCCC1CCN(Cc2cccc(Oc3ccc(F)cc3)c2)CC1 [Compound 103, 2-(methylamino)-2-oxoethyl 2-{1-[3-(4-fluorophenoxy)benzyl]piperidin-4-yl}ethylcarbamate]
melting point: 79 to 81 °C

CNC(=O)COC(=O)NCCC1CCN(CCc2ccc(F)cc2)CC1 [Compound 58, 2-(methylamino)-2-oxoethyl 2-{1-[2-(4-fluorophenyl)ethyl]piperidin-4-yl}ethylcarbamate]
melting point: 122 to 124 °C

CNC(=O)COC(=O)NCCC1CCN(Cc2cc(-c3ccc(Cl)cc3)no2)CC1 [Compound 104, 2-(methylamino)-2-oxoethyl 2-(1-{[3-(4-chlorophenyl)isoxazol-5-yl]methyl}piperidin-4-yl)ethylcarbamate]
melting point: 169 to 171 °C

CNC(=O)COC(=O)NCCC1CCN(Cc2ccc(F)cc2Cl)CC1 [Compound 100, 2-(methylamino)-2-oxoethyl 2-[1-(2-chloro-4-fluorobenzyl)piperidin-4-yl]ethylcarbamate]
melting point: 108 to 110 °C

CNC(=O)COC(=O)NCCC1CCN(CCc2ccccc2Cl)CC1 (as salt: HCl) [Compound 57, 2-(methylamino)-2-oxoethyl 2-{1-[2-(2-chlorophenyl)ethyl]piperidin-4-yl}ethylcarbamate]
melting point: 121 to 123 °C

CNC(=O)COC(=O)NCCC1CCN(Cc2cc(F)ccc2Cl)CC1 [Compound 22, 2-(methylamino)-2-oxoethyl 2-[1-(2-chloro-5-fluorobenzyl)piperidin-4-yl]ethylcarbamate]
melting point: 102 to 104 °C

CNC(=O)COC(=O)NCCC1CCN(Cc2cccc3ccccc23)CC1 [Compound 29, 2-(methylamino)-2-oxoethyl 2-[1-(naphthalen-1-ylmethyl)piperidin-4-yl]ethylcarbamate]
melting point: 86 to 88 °C

CNC(=O)COC(=O)NCCC1CCN(CCc2cc(-c3ccc(Cl)cc3)no2)CC1 [Compound 120, 2-(methylamino)-2-oxoethyl 2-(1-{2-[3-(4-chlorophenyl)isoxazol-5-yl]ethyl}piperidin-4-yl)ethylcarbamate]
melting point: 135 to 137 °C

CNC(=O)COC(=O)NCCC1CCN(Cc2cccc(Cl)c2F)CC1 [Compound 23, 2-(methylamino)-2-oxoethyl 2-[1-(3-chloro-2-fluorobenzyl)piperidin-4-yl]ethylcarbamate]
melting point: 104 to 106 °C

CNC(=O)COC(=O)NCCC1CCN(Cc2ccc(Br)cc2)CC1 [Compound 12, 2-(methylamino)-2-oxoethyl 2-{1-[(4-bromophenyl)methyl]piperidin-4-yl}ethylcarbamate]
melting point: 107 to 111 °C

CNC(=O)COC(=O)NCCC1CCN(CCOc2ccc(F)cc2)CC1 [Compound 83, 2-(methylamino)-2-oxoethyl 2-(1-{2-[(4-fluorophenyl)oxy]ethyl}piperidin-4-yl)ethylcarbamate]
melting point: 125 to 129 °C

CNC(=O)COC(=O)NCCC1CCN(C(C)c2cccc(OC(F)(F)F)c2)CC1 (stereo not drawn) (as salt: HCl) [Compound 110, 2-(methylamino)-2-oxoethyl 2-(1-{1-[3-(trifluoromethoxy)phenyl]ethyl}piperidin-4-yl)ethylcarbamate]
melting point: 169 to 171 °C

CNC(=O)COC(=O)NCCC1CCN(Cc2cc(F)cc(C#N)c2)CC1 [Compound 102, 2-(methylamino)-2-oxoethyl 2-[1-(3-cyano-5-fluorobenzyl)piperidin-4-yl]ethylcarbamate]
melting point: 132 to 134 °C

CNC(=O)COC(=O)NCCC1CCN(Cc2ccc3ccccc3c2)CC1 [Compound 30, 2-(methylamino)-2-oxoethyl 2-[1-(naphthalen-2-ylmethyl)piperidin-4-yl]ethylcarbamate]
melting point: 87 to 93 °C

CNC(=O)COC(=O)NCCC1CCN(CCOc2ccc(Cl)cc2)CC1 [Compound 84, 2-(methylamino)-2-oxoethyl 2-(1-{2-[(4-chlorophenyl)oxy]ethyl}piperidin-4-yl)ethylcarbamate]
melting point: 109 to 113 °C

CNC(=O)COC(=O)NC1CCN(CCOc2ccc(Cl)cc2Cl)CC1 [Compound 68]
melting point: 115 to 119 °C

CNC(=O)COC(=O)NCCC1CCN(Cc2ccc(Cl)c(Cl)c2)CC1 [Compound 20, 2-(methylamino)-2-oxoethyl 2-{1-[(3,4-dichlorophenyl)methyl]piperidin-4-yl}ethylcarbamate]
melting point: 101 to 105 °C

CNC(=O)COC(=O)NCCC1CCN(Cc2ccc(C(F)(F)F)cc2)CC1 [Compound 14, 2-(methylamino)-2-oxoethyl 2-(1-{[4-(trifluoromethyl)phenyl]methyl}piperidin-4-yl)ethylcarbamate]
melting point: 116 to 120 °C

CNC(=O)COC(=O)NCCC1CCN(Cc2cccc(Cl)c2Cl)CC1 [Compound 17, 2-(methylamino)-2-oxoethyl 2-{1-[(2,3-dichlorophenyl)methyl]piperidin-4-yl}ethylcarbamate]
melting point: 114 to 116 °C

CNC(=O)COC(=O)NCCC1CCN(Cc2cc(Cl)ccc2Cl)CC1 [Compound 19, 2-(methylamino)-2-oxoethyl 2-[1-(2,5-dichlorobenzyl)piperidin-4-yl]ethylcarbamate]
melting point: 125 to 127 °C
